Laboratory results published in PubChem BioAssay (NCI).
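Briefly, cells in 96-well plates were exposed to five compound concentrations for 48 h, and endpoints were estimated by linear interpolation. At the TGI there is no net growth.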

Key:
Experiment in all cases: NCI-60 cell line screen, 48 h
[1] = test system: A549 NSCLC
[2] = test system: CAKI-1 renal
[3] = test system: EKVX NSCLC
[4] = test system: LOX IMVI melanoma
[5] = test system: MCF7 breast
[6] = test system: PC-3 prostate
[7] = test system: UACC-257 melanoma

| SMILES | TGI [1] | TGI [2] | TGI [3] | TGI [4] | TGI [5] | TGI [6] | TGI [7] |
| --- | --- | --- | --- | --- | --- | --- | --- |
| C/C(=N\Nc1nc2ccccc2[nH]1)c1ccncn1 | > 100 µM | > 49 µM | 43.2 µM | > 42.5 µM | > 39.2 µM | > 100 µM | > 31.6 µM |
| Cc1[nH]c2ncn3ncnc3c2c1Cc1ccccc1 | > 100 µM | > 100 µM | > 100 µM |  | > 100 µM | > 100 µM | > 100 µM |
| O=c1[nH]c(=O)n(C2CC(O)C(COP(=O)(O)OC3CC(n4cc(F)c(=O)[nH]c4=O)OC3COP(=O)(O)OC3CC(n4cc(F)c(=O)[nH]c4=O)OC3COP(=O)(O)OC3CC(n4cc(F)c(=O)[nH]c4=O)OC3COP(=O)(O)OC3CC(n4cc(F)c(=O)[nH]c4=O)OC3COP(=O)(O)OC3CC(n4cc(F)c(=O)[nH]c4=O)OC3COP(=O)(O)OC3CC(n4cc(F)c(=O)[nH]c4=O)OC3COP(=O)(O)OC3CC(n4cc(F)c(=O)[nH]c4=O)OC3COP(=O)(O)OC3CC(n4cc(F)c(=O)[nH]c4=O)OC3COP(=O)(O)OC3CC(n4cc(F)c(=O)[nH]c4=O)OC3CO)O2)cc1F (stereo not drawn) | > 50 µM | > 50 µM | > 50 µM | > 50 µM | > 50 µM | > 50 µM | > 50 µM |
| CC(=O)OCc1cccc(O)c1C(=O)CCC=C(C)C | > 100 µM | > 100 µM | > 100 µM | > 100 µM | > 100 µM | > 100 µM | > 100 µM |
| CN(C)C(=S)N/N=C\C(=N/NC(=S)N(C)C)c1ccccc1 | > 100 µM | > 100 µM | > 100 µM | > 100 µM | > 38.8 µM | > 100 µM | > 100 µM |
| COc1cc(COC(=O)N2CCCCC2C(=O)O)c([N+](=O)[O-])cc1OC (stereo not drawn) | > 100 µM |  | > 100 µM |  | > 100 µM | > 100 µM | > 100 µM |
| COC(=O)C(/C(=N/N)C(=O)Nc1ccc(C)c(C)c1)c1nc2ccc(Cl)cc2[nH]c1=O (stereo not drawn) | > 100 µM | > 100 µM | > 100 µM | > 100 µM | > 100 µM | > 100 µM | > 100 µM |
| COc1cc2c(c(N)c1OC)C(=O)/C(=C/c1cc(C)c(O)c(C)c1)C2 | > 100 µM | > 100 µM | > 100 µM | > 100 µM | > 100 µM | > 100 µM | > 100 µM |
| O=C(O)CN1CCNCCN(CC(=O)O)CCNCC1 | > 100 µM | > 100 µM | > 100 µM | > 100 µM | > 100 µM | > 100 µM | > 100 µM |
| CC1CC(=O)N2CCCNC2=C1C#N (stereo not drawn) | > 100 µM | > 100 µM | > 100 µM | > 100 µM | > 100 µM | > 100 µM | > 100 µM |
| CC/C(Cl)=N\OC(=O)Nc1ccccc1OC(F)(F)F | 51.5 µM | 3.33 µM | 15.9 µM | 5.65 µM | > 51.3 µM | 33.5 µM | 32.8 µM |
| COc1ccc(-n2nnc3c(C#N)c(-c4ccccc4)c(C)n3c2=O)cc1 | > 100 µM | > 100 µM | > 100 µM | > 100 µM | > 100 µM | > 100 µM | > 100 µM |
| CN(C)CCCc1cccnc1 | > 100 µM | > 100 µM | > 100 µM | > 100 µM | > 100 µM | > 100 µM | > 100 µM |
| Cc1ccc(-c2c(C#N)c(-c3ccc([N+](=O)[O-])cc3)c(C#N)c(=O)n2NS(=O)(=O)c2ccc(C)cc2)cc1 | > 100 µM | > 100 µM | > 100 µM | > 100 µM | > 100 µM | > 100 µM | > 100 µM |
| C[C@@H](C(=O)O)c1ccc(-c2ccccc2)c(F)c1 | > 100 µM | > 100 µM | > 100 µM | > 100 µM | > 100 µM | > 100 µM | > 100 µM |
| CCCCCCNC(=O)c1cc(C#Cc2cc(OC)ccc2OC)ccc1OC | > 100 µM | > 100 µM | > 100 µM | > 100 µM | > 100 µM | > 100 µM | > 100 µM |
| O=c1n(CCCN2CCN(c3cccc(Cl)c3)CC2)nc2n1-c1ccc3ccccc3c1SC2 | > 100 µM | > 100 µM | > 100 µM | > 100 µM | > 100 µM | > 100 µM | > 100 µM |
| COCC[N+](CCNC(=O)c1cccc2c(N)c3cccc(C)c3nc12)(CCOC)Cc1ccc([N+](=O)[O-])cc1 | > 100 µM | > 100 µM | 67.3 µM | 81.5 µM | 89.8 µM | > 100 µM | 46 µM |
| Nc1ccn([C@H]2CO[C@@H](CO)O2)c(=O)n1 | > 100 µM | 23 µM | > 100 µM | > 100 µM | > 100 µM | > 100 µM | > 100 µM |
| C/C(O)=C(/C=N\C(=S)Nc1ccc(Cl)c(Cl)c1)C(=O)Nc1ccccc1C | > 100 µM | 95.7 µM | > 100 µM | > 100 µM | > 100 µM |  | > 100 µM |
| CC(=O)Nc1ccc2c3c(cc(O)c2c1)N(C(=O)CCCC(=O)Nc1ccc2c4c(cc(O)c2c1)N(C(=O)OC(C)(C)C)CC4CCl)CC3CCl (stereo not drawn) | > 50 µM | > 50 µM | > 35.3 µM | > 12.4 µM | > 16.3 µM | > 15.6 µM | 3.34 µM |
| CC1(C)CC(=O)C(CC(C(=O)C(=O)Nc2cc(C(F)(F)F)ccc2Cl)C(=O)c2ccco2)C(=O)C1 (stereo not drawn) | > 100 µM | > 100 µM | > 100 µM | > 100 µM | > 100 µM | > 100 µM | > 100 µM |
| COc1ccc(/C=C/C(=O)c2nc3ccccc3[nH]2)cc1 | > 81.8 µM | > 100 µM | 46 µM | 28.2 µM | > 81 µM | 87.6 µM | 52 µM |
| Cn1c(N(CCO)CCO)cnc1[N+](=O)[O-] | > 100 µM | > 100 µM | > 100 µM | > 100 µM | > 100 µM | > 100 µM | > 100 µM |
| Cc1cc(=O)oc2c(CNC(C)C(=O)O)c(O)ccc12 (stereo not drawn) | > 100 µM | > 100 µM | > 100 µM | > 100 µM | > 100 µM | > 100 µM | > 100 µM |
| CSC(=NC1CC(n2cc(C)c(=O)[nH]c2=O)OC1CO)NC#N (stereo not drawn) | > 100 µM | > 100 µM | > 100 µM | > 100 µM | > 100 µM | > 100 µM | > 100 µM |
